Measured values taken from the NIST ThermoML archive (doi:10.1021/je700699u).

Test: cn = amount concentration of the nth substance listed, in mol/dm3
Details: 101 kPa, Liquid

NCCCCCC(=O)[O-].[K+] [potassium Salt of 6-aminohexanoic acid] + O
Details	mass density, 298.15 K [kg/m3]	mass density, 303.15 K [kg/m3]	mass density, 313.15 K [kg/m3]	mass density, 323.15 K [kg/m3]	mass density, 333.15 K [kg/m3]	viscosity, 298.15 K [mPa·s]	viscosity, 303.15 K [mPa·s]	viscosity, 313.15 K [mPa·s]	viscosity, 323.15 K [mPa·s]	viscosity, 333.15 K [mPa·s]
c1 = 0.497	1024	1022	1018	1014	1009	1.191	1.058	0.854	0.706	0.599
c1 = 1.002	1049	1048	1044	1038	1034	1.608	1.418	1.126	0.913	0.762
c1 = 1.429	1072	1070	1067	1061	1057	2.152	1.882	1.497	1.199	0.987
c1 = 1.982	1098	1095	1089	1084	1078	3.091	2.669	2.035	1.608	1.307
c1 = 2.458	1119	1117	1111	1105	1098	4.445	3.796	2.85	2.211	1.768
c1 = 2.942	1141	1139	1132	1126	1118	6.601	5.573	4.112	3.145	2.458

CNCC(=O)[O-].[K+] [potassium Salt of sarcosine] + O
Details	mass density, 298.15 K [kg/m3]	mass density, 303.15 K [kg/m3]	mass density, 313.15 K [kg/m3]	mass density, 323.15 K [kg/m3]	mass density, 333.15 K [kg/m3]	viscosity, 298.15 K [mPa·s]	viscosity, 303.15 K [mPa·s]	viscosity, 313.15 K [mPa·s]	viscosity, 323.15 K [mPa·s]	viscosity, 333.15 K [mPa·s]
c1 = 0.51	1024	1023	1019	1015	1010	1.018	0.913	0.748	0.627	0.538
c1 = 1.01	1051	1049	1045	1041	1036	–	–	–	–	–
c1 = 1.019	–	–	–	–	–	1.185	1.06	0.876	0.759	0.614
c1 = 1.534	1077	1074	1070	1065	1060	1.408	1.252	1.005	0.833	0.703
c1 = 2.019	1103	1100	1096	1091	1085	1.663	1.466	1.18	0.968	0.811
c1 = 2.445	1124	1121	1117	1111	1106	1.959	1.707	1.356	1.098	0.919
c1 = 2.987	1150	1148	1143	1138	1132	2.493	2.185	1.721	1.395	1.115

N=C(N)NCCC[C@H](N)C(=O)[O-].[K+] [potassium L-argininate] + O
Details	mass density, 298.15 K [kg/m3]	mass density, 303.15 K [kg/m3]	mass density, 313.15 K [kg/m3]	mass density, 323.15 K [kg/m3]	mass density, 333.15 K [kg/m3]	viscosity, 298.15 K [mPa·s]	viscosity, 303.15 K [mPa·s]	viscosity, 313.15 K [mPa·s]	viscosity, 323.15 K [mPa·s]	viscosity, 333.15 K [mPa·s]
c1 = 0.238	1021	1019	1016	1011	1007	1.026	0.917	0.75	0.63	0.539
c1 = 0.479	1043	1041	1037	1032	1027	1.215	1.098	0.886	0.738	0.632
c1 = 0.725	1064	1062	1058	1053	1048	1.431	1.276	1.035	0.856	0.723
c1 = 0.971	1087	1085	1080	1075	1069	1.882	1.553	1.244	1.019	0.848

N[C@@H](CC(=O)O)C(=O)[O-].[K+] [potassium (S)-2-amino-3-carboxypropanoate] + O
Details	mass density, 298.15 K [kg/m3]	mass density, 303.15 K [kg/m3]	mass density, 313.15 K [kg/m3]	mass density, 323.15 K [kg/m3]	mass density, 333.15 K [kg/m3]	viscosity, 298.15 K [mPa·s]	viscosity, 303.15 K [mPa·s]	viscosity, 313.15 K [mPa·s]	viscosity, 323.15 K [mPa·s]	viscosity, 333.15 K [mPa·s]
c1 = 0.255	1029	1027	1024	1020	1015	0.992	0.887	0.725	0.613	0.525
c1 = 0.47	1059	1057	1053	1049	1045	1.104	0.998	0.816	0.693	0.593
c1 = 0.708	1089	1087	1083	1079	1074	1.239	1.115	0.914	0.771	0.663
c1 = 0.979	1119	1117	1113	1109	1105	1.419	1.269	1.041	0.865	0.743
c1 = 1.208	1147	1145	1141	1137	1133	1.615	1.45	1.185	0.994	0.836
c1 = 1.449	1176	1173	1169	1166	1162	1.856	1.667	1.353	1.142	0.957

N[C@@H](CCC(=O)O)C(=O)[O-].[K+] [potassium (S)-2-amino-4-carboxybutanoate] + O
Details	mass density, 298.15 K [kg/m3]	mass density, 303.15 K [kg/m3]	mass density, 313.15 K [kg/m3]	mass density, 323.15 K [kg/m3]	mass density, 333.15 K [kg/m3]	viscosity, 298.15 K [mPa·s]	viscosity, 303.15 K [mPa·s]	viscosity, 313.15 K [mPa·s]	viscosity, 323.15 K [mPa·s]	viscosity, 333.15 K [mPa·s]
c1 = 0.248	1029	1027	1024	1019	1017	1.011	0.908	0.744	0.623	0.535
c1 = 0.493	1059	1057	1054	1049	1047	1.163	1.041	0.854	0.713	0.611
c1 = 0.733	1088	1086	1083	1078	1076	1.344	1.199	0.982	0.817	0.699
c1 = 1	1117	1116	1112	1107	1105	1.579	1.404	1.143	0.953	0.809
c1 = 1.24	1145	1143	1139	1134	1132	1.844	1.644	1.336	1.101	0.933
c1 = 1.469	1173	1171	1167	1162	1160	2.194	1.962	1.57	1.295	1.089
